Assay results taken from patent US20230042936A1, “PYRIDO[2,3-d]PYRIMIDIN-7(8H)-ONES AS CDK INHIBITORS” (PROSENESTAR LLC, priority 2020, published 2023).
pIC50: −log10 of the molar value. “Also recorded” adds a separate entry of the source.

Tests used:
CDK9/CycT1 = CDK9/CycT1 (Homo sapiens, UniProt P50750); assay: Kinase profiling; format: biochemical; conditions: 10 semi-logarithmic dilutions from 50 μM, singlicate
CDK1/CycE1 = CDK1/CycE1 (Homo sapiens, UniProt P06493); assay: Kinase profiling; format: biochemical; conditions: 10 semi-logarithmic dilutions from 50 μM, singlicate
DYRK1A = DYRK1A (Homo sapiens, UniProt Q13627); assay: Kinase profiling; format: biochemical; conditions: 10 semi-logarithmic dilutions from 50 μM, singlicate
CDK3/CycC = CDK3/CycC (Homo sapiens, UniProt Q00526); assay: Kinase profiling; format: biochemical; conditions: 10 semi-logarithmic dilutions from 50 μM, singlicate
CDK19/CycC = CDK19/CycC (Homo sapiens, UniProt Q9BWU1); assay: Kinase profiling; format: biochemical; conditions: 10 semi-logarithmic dilutions from 50 μM, singlicate
CDK8/CycC = CDK8/CycC (Homo sapiens, UniProt P49336); assay: Kinase profiling; format: biochemical; conditions: 10 semi-logarithmic dilutions from 50 μM, singlicate
CDK3/CycE1 = CDK3/CycE1 (Homo sapiens, UniProt Q00526); assay: Kinase profiling; format: biochemical; conditions: 10 semi-logarithmic dilutions from 50 μM, singlicate
CDK4/CycD3 = CDK4/CycD3 (Homo sapiens, UniProt P11802); assay: Kinase profiling; format: biochemical; conditions: 10 semi-logarithmic dilutions from 50 μM, singlicate
[1] = test system: panel of 27 kinases (CDK family members); assay: Kinase profiling, results in words; format: biochemical; conditions: from Table 1
CDK1/CycA2 = CDK1/CycA2 (Homo sapiens, UniProt P06493); assay: Kinase profiling; format: biochemical; conditions: 10 semi-logarithmic dilutions from 50 μM, singlicate
CDK6/CycD1 = CDK6/CycD1 (Homo sapiens, UniProt Q00534); assay: Kinase profiling; format: biochemical; conditions: 10 semi-logarithmic dilutions from 50 μM, singlicate
AKT1 aa1-480 = molecular target: T1, AKT1 aa1-480 (Homo sapiens, UniProt P31749); assay: Kinase profiling; format: biochemical; conditions: 10 semi-logarithmic dilutions from 50 μM, singlicate
T1 construct: AKT1 aa1-480

PCTAIRE1/CycY = PCTAIRE1/CycY (Homo sapiens, UniProt Q00536); assay: Kinase profiling; format: biochemical; conditions: 10 semi-logarithmic dilutions from 50 μM, singlicate
DYRK2 = molecular target: T2, DYRK2 (Homo sapiens, UniProt Q92630); assay: Kinase profiling; format: biochemical; conditions: 10 semi-logarithmic dilutions from 50 μM, singlicate; read-out: IC50 DYRK2
T2 sequence (Q92630 1-601): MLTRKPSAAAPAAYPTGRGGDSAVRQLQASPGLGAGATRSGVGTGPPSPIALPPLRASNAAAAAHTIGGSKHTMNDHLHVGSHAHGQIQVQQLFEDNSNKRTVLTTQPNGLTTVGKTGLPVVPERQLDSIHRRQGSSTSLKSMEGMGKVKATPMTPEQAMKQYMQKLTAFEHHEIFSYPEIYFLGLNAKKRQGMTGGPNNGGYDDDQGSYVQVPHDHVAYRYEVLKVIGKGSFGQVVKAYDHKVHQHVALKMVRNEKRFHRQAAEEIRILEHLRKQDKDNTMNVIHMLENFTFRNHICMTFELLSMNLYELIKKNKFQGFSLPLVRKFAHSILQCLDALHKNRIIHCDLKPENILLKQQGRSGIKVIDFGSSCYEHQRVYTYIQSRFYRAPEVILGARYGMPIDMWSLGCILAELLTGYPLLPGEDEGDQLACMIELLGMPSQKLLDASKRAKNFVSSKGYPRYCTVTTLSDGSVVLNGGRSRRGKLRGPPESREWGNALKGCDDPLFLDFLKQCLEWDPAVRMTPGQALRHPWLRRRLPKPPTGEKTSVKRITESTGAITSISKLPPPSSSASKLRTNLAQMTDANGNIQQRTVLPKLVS

[2] = test system: MDA-MB-231 human breast cancer cells; assay: Cell cycle analysis (DNA content, flow cytometry); format: cell-based; conditions: GI50 concentration; FIG. 1
Protocol: FIG. 1 depicts DNA content profiles of MDA-MB-231 human breast cancer cells treated with subject compounds or commercial CDK inhibitors, showing the percentage of cells at the different cell cycle phases after 48 hours of the treatments indicated. (n=6 technical replicates).
Cells were collected by trypsinization, washed with PBS and fixed with cold 70% ethanol. Cells were treated with 250 μg/ml RNase (Qiagen) for 30 minutes at 37° C. and stained with 10 μg/ml Propidium Iodide (Sigma). Cell cycle was analyzed by flow cytometry using a LSR Fortessa Analyzer. Cell cycle profiles were generated and analyzed with FlowJo software.
Cells were collected by tripsinization at several times after treatment with the indicated compounds and, then, fixed with cold 70% Ethanol. DNA content was determined by staining with propidium iodide (10 μg/ml, Sigma Aldrich). Data acquisition was performed with a LSR Fortessa analyzer (BD Biosciences) and analysed using FlowJo software.

CDK9/CycK = CDK9/CycK (Homo sapiens, UniProt P50750); assay: Kinase profiling; format: biochemical; conditions: 10 semi-logarithmic dilutions from 50 μM, singlicate
CDK2/CycE1 = CDK2/CycE1 (Homo sapiens, UniProt P24941); assay: Kinase profiling; format: biochemical; conditions: 10 semi-logarithmic dilutions from 50 μM, singlicate
PIM1 = PIM1 (Homo sapiens, UniProt P11309); assay: Kinase profiling; format: biochemical; conditions: 10 semi-logarithmic dilutions from 50 μM, singlicate

Sequence of CDK19/CycC (Q9BWU1 whole entry): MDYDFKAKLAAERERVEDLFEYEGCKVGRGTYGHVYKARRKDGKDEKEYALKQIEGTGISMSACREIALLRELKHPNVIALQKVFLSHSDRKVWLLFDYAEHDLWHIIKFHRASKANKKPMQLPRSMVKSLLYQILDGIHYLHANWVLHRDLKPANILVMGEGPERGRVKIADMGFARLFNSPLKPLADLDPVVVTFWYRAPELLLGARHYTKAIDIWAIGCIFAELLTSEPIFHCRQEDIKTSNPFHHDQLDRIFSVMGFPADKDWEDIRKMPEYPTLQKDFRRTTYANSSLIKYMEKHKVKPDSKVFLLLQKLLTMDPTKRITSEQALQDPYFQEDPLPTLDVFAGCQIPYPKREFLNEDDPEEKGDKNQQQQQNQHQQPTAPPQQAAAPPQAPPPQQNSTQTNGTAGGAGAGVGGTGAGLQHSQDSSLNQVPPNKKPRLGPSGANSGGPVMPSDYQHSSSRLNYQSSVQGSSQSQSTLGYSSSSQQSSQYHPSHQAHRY
Sequence of CDK19/CycC (P24863 whole entry partner): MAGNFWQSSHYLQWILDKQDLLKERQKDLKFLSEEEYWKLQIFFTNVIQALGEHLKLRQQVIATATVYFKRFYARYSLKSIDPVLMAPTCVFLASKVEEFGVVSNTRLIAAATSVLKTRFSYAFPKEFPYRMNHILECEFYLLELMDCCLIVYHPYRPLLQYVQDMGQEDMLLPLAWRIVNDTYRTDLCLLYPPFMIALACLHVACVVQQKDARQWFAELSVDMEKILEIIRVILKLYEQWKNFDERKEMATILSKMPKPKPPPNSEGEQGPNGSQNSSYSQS
Sequence of CDK8/CycC (P49336 whole entry): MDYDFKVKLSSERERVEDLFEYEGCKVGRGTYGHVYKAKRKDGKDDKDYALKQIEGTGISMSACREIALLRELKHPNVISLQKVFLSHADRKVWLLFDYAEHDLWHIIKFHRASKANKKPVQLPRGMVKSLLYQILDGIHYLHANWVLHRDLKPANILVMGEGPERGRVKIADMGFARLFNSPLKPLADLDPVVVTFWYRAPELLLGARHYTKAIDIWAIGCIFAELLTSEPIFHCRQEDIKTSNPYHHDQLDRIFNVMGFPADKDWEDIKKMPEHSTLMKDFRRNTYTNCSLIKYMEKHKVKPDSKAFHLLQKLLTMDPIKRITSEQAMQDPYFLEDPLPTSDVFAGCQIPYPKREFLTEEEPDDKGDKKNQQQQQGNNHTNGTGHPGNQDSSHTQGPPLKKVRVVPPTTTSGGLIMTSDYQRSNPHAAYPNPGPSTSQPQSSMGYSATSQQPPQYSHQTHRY
Sequence of CDK8/CycC (P24863 whole entry partner): as the sequence (P24863 whole entry partner) above
Sequence of CDK9/CycK (P50750 whole entry): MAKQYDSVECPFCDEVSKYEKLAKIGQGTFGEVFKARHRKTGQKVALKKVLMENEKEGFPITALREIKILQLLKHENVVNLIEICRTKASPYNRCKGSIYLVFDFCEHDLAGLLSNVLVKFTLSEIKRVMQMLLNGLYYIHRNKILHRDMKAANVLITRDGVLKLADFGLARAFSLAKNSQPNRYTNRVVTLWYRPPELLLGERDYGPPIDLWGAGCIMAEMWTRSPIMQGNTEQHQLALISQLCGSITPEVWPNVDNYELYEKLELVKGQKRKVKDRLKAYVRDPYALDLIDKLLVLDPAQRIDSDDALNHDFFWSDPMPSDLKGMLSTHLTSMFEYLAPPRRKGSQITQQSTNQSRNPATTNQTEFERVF
Sequence of CDK9/CycK (O75909 whole entry partner): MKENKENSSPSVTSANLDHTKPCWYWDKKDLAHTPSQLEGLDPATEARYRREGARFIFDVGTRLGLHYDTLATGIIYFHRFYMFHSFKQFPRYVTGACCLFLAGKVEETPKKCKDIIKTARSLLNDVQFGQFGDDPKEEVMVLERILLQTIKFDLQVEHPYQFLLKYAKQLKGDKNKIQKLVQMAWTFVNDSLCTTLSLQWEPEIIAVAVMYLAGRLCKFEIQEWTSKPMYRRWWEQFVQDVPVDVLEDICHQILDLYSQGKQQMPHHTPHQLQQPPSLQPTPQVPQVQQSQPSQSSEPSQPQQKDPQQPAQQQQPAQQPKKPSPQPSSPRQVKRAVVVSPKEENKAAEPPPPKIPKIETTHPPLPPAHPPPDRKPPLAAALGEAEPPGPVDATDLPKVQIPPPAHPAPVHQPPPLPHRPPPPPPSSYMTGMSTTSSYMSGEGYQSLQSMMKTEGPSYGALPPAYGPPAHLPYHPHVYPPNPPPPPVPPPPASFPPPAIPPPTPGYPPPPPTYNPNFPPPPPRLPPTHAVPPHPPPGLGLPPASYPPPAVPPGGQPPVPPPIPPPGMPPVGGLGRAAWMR
Sequence of CDK9/CycT1 (P50750 whole entry): as the sequence (P50750 whole entry) above
Sequence of CDK9/CycT1 (O60563 whole entry partner): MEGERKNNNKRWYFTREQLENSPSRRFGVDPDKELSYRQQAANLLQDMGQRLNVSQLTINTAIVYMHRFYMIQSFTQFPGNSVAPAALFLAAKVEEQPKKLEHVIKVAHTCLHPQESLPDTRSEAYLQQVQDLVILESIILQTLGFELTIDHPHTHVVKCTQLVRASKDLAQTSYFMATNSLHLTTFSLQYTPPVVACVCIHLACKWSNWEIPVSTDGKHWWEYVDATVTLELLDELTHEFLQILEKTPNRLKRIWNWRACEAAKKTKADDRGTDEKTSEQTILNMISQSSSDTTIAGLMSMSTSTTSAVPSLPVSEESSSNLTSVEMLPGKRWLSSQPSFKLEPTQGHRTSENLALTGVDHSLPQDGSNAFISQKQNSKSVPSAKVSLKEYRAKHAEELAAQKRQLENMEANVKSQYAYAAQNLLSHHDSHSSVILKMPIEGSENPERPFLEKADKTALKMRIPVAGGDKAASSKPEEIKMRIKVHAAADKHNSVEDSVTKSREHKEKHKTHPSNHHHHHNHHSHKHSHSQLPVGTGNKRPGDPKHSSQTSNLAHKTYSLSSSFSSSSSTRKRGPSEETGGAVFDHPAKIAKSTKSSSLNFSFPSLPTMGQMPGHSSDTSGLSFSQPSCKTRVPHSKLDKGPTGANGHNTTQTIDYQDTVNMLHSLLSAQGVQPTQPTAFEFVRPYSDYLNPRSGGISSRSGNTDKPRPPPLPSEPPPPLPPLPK
Sequence of CDK1/CycE1 (P06493 whole entry): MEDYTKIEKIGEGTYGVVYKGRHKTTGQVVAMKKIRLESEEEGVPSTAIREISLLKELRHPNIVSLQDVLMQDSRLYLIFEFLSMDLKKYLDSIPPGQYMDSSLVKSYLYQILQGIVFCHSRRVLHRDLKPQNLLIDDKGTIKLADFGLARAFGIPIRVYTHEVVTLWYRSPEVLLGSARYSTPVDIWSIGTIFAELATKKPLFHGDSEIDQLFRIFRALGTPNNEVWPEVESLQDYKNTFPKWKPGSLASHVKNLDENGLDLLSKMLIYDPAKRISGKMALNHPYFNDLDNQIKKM
Sequence of CDK1/CycE1 (P24864 whole entry partner): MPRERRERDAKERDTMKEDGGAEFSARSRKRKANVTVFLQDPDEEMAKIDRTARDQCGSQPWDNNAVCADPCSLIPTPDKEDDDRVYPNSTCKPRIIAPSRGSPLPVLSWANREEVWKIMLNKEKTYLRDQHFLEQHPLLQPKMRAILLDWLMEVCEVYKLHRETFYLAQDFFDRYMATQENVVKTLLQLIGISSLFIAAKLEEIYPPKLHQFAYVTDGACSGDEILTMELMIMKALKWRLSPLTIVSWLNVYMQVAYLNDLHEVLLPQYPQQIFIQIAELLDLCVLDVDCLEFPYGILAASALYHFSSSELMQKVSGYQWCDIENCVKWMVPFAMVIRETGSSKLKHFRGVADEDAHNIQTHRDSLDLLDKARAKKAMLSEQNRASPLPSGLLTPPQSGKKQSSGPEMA
Sequence of CDK1/CycA2 (P06493 whole entry): as the sequence (P06493 whole entry) above
Sequence of CDK1/CycA2 (P20248 whole entry partner): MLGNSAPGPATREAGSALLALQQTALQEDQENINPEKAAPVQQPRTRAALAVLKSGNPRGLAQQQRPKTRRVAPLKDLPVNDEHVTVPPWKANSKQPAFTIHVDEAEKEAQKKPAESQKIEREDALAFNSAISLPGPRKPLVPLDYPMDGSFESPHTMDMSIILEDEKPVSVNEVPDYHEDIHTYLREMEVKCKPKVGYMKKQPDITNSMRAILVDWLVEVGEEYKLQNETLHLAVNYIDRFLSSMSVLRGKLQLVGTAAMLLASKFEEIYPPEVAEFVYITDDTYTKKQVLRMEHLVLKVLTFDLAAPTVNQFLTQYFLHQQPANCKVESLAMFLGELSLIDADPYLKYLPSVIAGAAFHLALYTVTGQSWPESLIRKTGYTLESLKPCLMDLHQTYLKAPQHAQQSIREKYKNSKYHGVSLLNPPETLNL
T1 sequence (P31749 whole entry, the tested form may be a part): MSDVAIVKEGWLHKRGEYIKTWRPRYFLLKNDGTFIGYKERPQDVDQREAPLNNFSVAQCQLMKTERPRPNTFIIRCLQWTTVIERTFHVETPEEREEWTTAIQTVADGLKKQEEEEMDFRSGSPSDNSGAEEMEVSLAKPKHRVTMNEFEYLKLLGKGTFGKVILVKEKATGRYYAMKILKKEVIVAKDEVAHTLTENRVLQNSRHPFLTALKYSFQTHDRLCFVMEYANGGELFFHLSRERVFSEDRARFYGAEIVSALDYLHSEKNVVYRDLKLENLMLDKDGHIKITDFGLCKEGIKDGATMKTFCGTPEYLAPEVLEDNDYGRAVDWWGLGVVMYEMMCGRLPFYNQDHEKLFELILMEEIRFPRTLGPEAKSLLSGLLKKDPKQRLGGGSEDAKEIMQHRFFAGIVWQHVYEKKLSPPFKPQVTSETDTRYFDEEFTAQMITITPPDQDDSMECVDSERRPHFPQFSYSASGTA

Compound | pIC50 (CDK9/CycT1) | pIC50 (CDK1/CycE1) | pIC50 (DYRK1A) | pIC50 (CDK3/CycC) | pIC50 (CDK19/CycC) | pIC50 (CDK8/CycC) | pIC50 (CDK3/CycE1) | pIC50 (CDK4/CycD3) | additional affinity for CDK1/2 [1] | pIC50 (CDK1/CycA2) | pIC50 (CDK6/CycD1) | pIC50 (AKT1 aa1-480) | pIC50 (PCTAIRE1/CycY) | pIC50 (DYRK2) | cell cycle arrest by DNA content [2] | pIC50 (CDK9/CycK) | pIC50 (CDK2/CycE1) | pIC50 (PIM1) | kinase affinity profile [1]
CC(=O)c1c(C)c2cnc(Nc3ccc(N4CCC(CCCO)CC4)cc3)nc2n([C@@H]2CC3CCC2C3)c1=O (stereo partly drawn) [PS008, 6-acetyl-8-((2R)-bicyclo[2.2.1]heptan-2-yl)-2-((4-(4-(3-hydroxypropyl)piperidin-1-yl)phenyl)amino)-5-methylpyrido[2,3-d]pyrimidin-7(8H)-one] | 6.76 | 5.52 | 4.93 | 5.73 | 4.59 | 4.56 | 4.59 | 6.58 | additional affinity | 4.41 | 7.71 | < 4.30 | 4.45 | 5.03 | induced accumulation of cells in G0/G1 | 7.17 | 5.44 | < 4.30 | –
CC(=O)c1c(C)c2cnc(Nc3ccc(N4CCC(CCCO)CC4)cc3)nc2n(C2CCCC2)c1=O [PS009, 6-acetyl-8-cyclopentyl-2-((4-(4-(3-hydroxypropyl)piperidin-1-yl)phenyl)amino)-5-methylpyrido[2,3-d]pyrimidin-7(8H)-one] | 6.71 | 4.70 | < 4.30 | 5.12 | 4.44 | < 4.30 | 4.77 | 7.26 | additional affinity | < 4.30 | 7.89 | < 4.30 | < 4.30 | < 4.30 | induced accumulation of cells in G0/G1; also recorded: arrested cells predominantly in G1 | 7.25 | 5.53 | < 4.30 | mainly bound to CDK4/6/ with also an interesting preference for CDK2 and CDK9
CC(O)CCC1CCN(c2ccc(Nc3ncc4ccc(=O)n([C@@H]5CC6CCC5C6)c4n3)cc2)CC1 (stereo partly drawn) [PS004, 8-((2R)-bicyclo[2.2.1]heptan-2-yl)-2-((4-(4-(3-hydroxybutyl)piperidin-1-yl)phenyl)amino)pyrido[2,3-d]pyrimidin-7(8H)-one] | 6.58 | 5.48 | < 4.30 | 5.68 | 5.02 | 6.79 | 6.18 | 6.91 | – | 4.84 | 7.56 | < 4.30 | 4.87 | 4.39 | accumulation of cells both in G1 and G2/M phases; also recorded: arresting cells in G1/G2/M cell cycle phases | 6.85 | 6.52 | < 4.30 | affinity not only for CDK4/6 but also for CDK2/9
